From US6770654B2, “Indole derivatives and use thereof in medicines” (Toray Industries, Inc., priority 2000, dated 2004)
Where a name gives a salt, the structure may show the parent alone.

Key:
δ opioid receptor = molecular target: T1, δ opioid receptor (Mus musculus, UniProt P32300); assay: Mouse vas deferens (MVD): antagonism against the δ agonist DPDPE, pA2 by Schild method; format: cell-based
T1 construct: Each of the vas deferens isolated from the mice was hung in a Magnus tube; from tissue; host or cells: vas deferens of male ddy strain mice
T1 sequence (P32300 whole entry): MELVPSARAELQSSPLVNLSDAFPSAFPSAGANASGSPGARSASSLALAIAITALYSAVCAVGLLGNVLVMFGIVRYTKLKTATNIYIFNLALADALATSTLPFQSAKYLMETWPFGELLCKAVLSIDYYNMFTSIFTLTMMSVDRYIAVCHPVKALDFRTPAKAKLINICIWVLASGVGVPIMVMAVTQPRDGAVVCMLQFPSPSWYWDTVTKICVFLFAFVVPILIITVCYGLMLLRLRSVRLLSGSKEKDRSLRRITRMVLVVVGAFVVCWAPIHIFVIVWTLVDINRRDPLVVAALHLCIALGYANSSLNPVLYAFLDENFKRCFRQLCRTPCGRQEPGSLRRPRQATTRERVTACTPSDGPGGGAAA
Protocol: Using mouse vas deferens (MVD), the compounds were examined for antagonism against opioid receptor agonists, i.e., morphine (μ), DPDPE (δ), and U50,488H (κ).
Male ddy strain mice were used in this experiment. Each of the vas deferens isolated from the mice was hung in a Magnus tube which was maintained at 37° C., filled with a Krebes-Henseleit solution (NaCl 118 mM; KCl 4.7 mM; CaCl2 2.5 mM; KH2PO4 1.1 mM; NaHCO3 25 mM; glucose 11 mM), and aerated with 5% carbon dioxide and 95% oxygen. Electric stimulation was applied through upper and lower ring-shaped platinum electrodes at 0.1 Hz and 5.0 mS. Tissue contraction was recorded on a polygraph using an Isometric Transducer.
Morphine, DPDPE, and U50,488H were added in a cumulative manner to determine the IC50 values (concentration for 50% inhibition of contraction induced by electric stimulation). Next, 10 nM of a sample compound was added to the system beforehand, and 20 minutes later, morphine, DPDPE, and U50,488H were added in a cumulative manner. According to the above procedure, the ratio of the IC50 values of morphine, DPDPE, and U50,488H in the presence of the sample compound to that in its absence was determined, and the pA2 values were calculated in accordance with the Schild et al.'s method (Schild, H. O., Br. J. Pharamacol. Chemother. 4, 277 (1949)).

Row | Compound | Kb (δ opioid receptor) [nM] | melting point
1 | Oc1ccc2c3c1O[C@H]1c4c(c5cc(F)cc6c5n4CC[C@@H]6O)C[C@@]4(O)[C@@H](C2)N(CC2CC2)CC[C@]314 [Compound 3, 17-cyclopropylmethyl-6,7-didehydro-4,5α-epoxy-8′-fluoro-5′,6′-dihydro-4′H-pyrrolo[3,2,1-ij]quinolino[2′,1′:6,7]-morphinan-3,6′β,14β-triol] | 3.98 | –
2 | Oc1ccc2c3c1O[C@H]1c4c(c5cc(F)cc6c5n4CC[C@@H]6O)C[C@@]4(O)[C@@H](C2)N(CC2CC2)CC[C@]314 (as salt: methanesulfonate) [Compound 3, 17-cyclopropylmethyl-6,7-didehydro-4,5α-epoxy-8′-fluoro-5′,6′-dihydro-4′H-pyrrolo[3,2,1-ij]quinolino[2′,1′:6,7]-morphinan-3,6′β,14β-triol] | – | 240 °C (dec.)
3 | Oc1ccc2c3c1O[C@H]1c4c(c5c(O)c(F)cc6c5n4CCC6)C[C@@]4(O)[C@@H](C2)N(CC2CC2)CC[C@]314 (as salt: methanesulfonate) | – | 280 °C (dec.)
